The values that follow come from ChEMBL document CHEMBL3046640, “Synthesis and antimicrobial activity of bischalcone derivatives” (2013).

Holding throughout (format): functional
Experiment [1] has as its system Rhizopus arrhizus. Kind of experiment: Antifungal activity against Rhizopus oryzae MTCC 262 assessed as growth inhibition at 100 ug/mL after 3 to 4 days by agar diffusion method. As to conditions: read-out: DIZ. (In general: Agar diffusion results depend on both activity and mobility in agar.)
Experiment [2] has as its system Aspergillus niger. Kind of experiment: Antifungal activity against Aspergillus niger ATCC 16404 assessed as growth inhibition at 100 ug/mL after 3 to 4 days by agar diffusion method. Conditions: read-out: DIZ.
The test system of experiment [3] is Candida albicans. Kind of experiment: Antifungal activity against Candida albicans ATCC 10231 assessed as growth inhibition at 100 ug/mL after 3 to 4 days by agar diffusion method. Conditions: read-out: DIZ.
In experiment [4] the test system is Pseudomonas aeruginosa. The experiment in a line: Antibacterial activity against Pseudomonas aeruginosa ATCC 27853 assessed as growth inhibition at 100 ug/mL after 24 hr by cup-plate method. As to conditions: ATCC 27853, 24 h, read-out: DIZ.
Experiment [5] concerns Escherichia coli. Kind of experiment: Antibacterial activity against Escherichia coli ATCC 25922 assessed as growth inhibition at 100 ug/mL after 24 hr by cup-plate method. As to conditions: ATCC 25922, 24 h, read-out: DIZ.
Experiment [6] has as its system Staphylococcus aureus. Kind of experiment: Antibacterial activity against Staphylococcus aureus ATCC 25923 assessed as growth inhibition at 100 ug/mL after 24 hr by cup-plate method. Conditions: ATCC 25923, 24 h, read-out: DIZ.
For experiment [7], the system named is Rhizopus arrhizus. The experiment in a line: Antifungal activity against Rhizopus oryzae MTCC 262 assessed as growth inhibition after 48 hr by broth dilution method. On the technique in general: In broth dilution the organism is exposed to a series of concentrations in liquid medium.
The test system of experiment [8] is Aspergillus niger. Kind of experiment: Antifungal activity against Aspergillus niger ATCC 16404 assessed as growth inhibition after 48 hr by broth dilution method.
For experiment [9], the system named is Candida albicans. Kind of experiment: Antifungal activity against Candida albicans ATCC 10231 assessed as growth inhibition after 48 hr by broth dilution method.
Experiment [10] deals with Pseudomonas aeruginosa. Kind of experiment: Antibacterial activity against Pseudomonas aeruginosa ATCC 27853 assessed as growth inhibition after 24 hr by broth dilution method.
The test system of experiment [11] is Escherichia coli. Kind of experiment: Antibacterial activity against Escherichia coli ATCC 25922 assessed as growth inhibition after 24 hr by broth dilution method.
The subject of experiment [12] is Staphylococcus aureus. Kind of experiment: Antibacterial activity against Staphylococcus aureus ATCC 25923 assessed as growth inhibition after 24 hr by broth dilution method.

In brackets after ≈: the same amount, converted by molar mass. Activity calls are given as the source filed them. The rule behind the calls is not given here.

The MIC is the least concentration at which growth counts as inhibited. As for `O=C(/C=C/c1cccc(Cl)c1)c1cc(C(=O)/C=C/c2cccc(Cl)c2)c(O)cc1O`, the zone of inhibition at 100 µg/mL was 10 mm in [1]; 5 mm in experiment [2]; 10 mm in experiment [3]; 10 mm in experiment [4]; less than 5 mm in experiment [5]; 5 mm in experiment [6]. Also, the MIC in [7] (MTCC 262, 48 h) is 50 µg/mL (≈ 114 µM); in experiment [8] (ATCC 16404, 48 h) it was more than 100 µg/mL; in experiment [9] (ATCC 10231, 48 h), 50 µg/mL (≈ 114 µM); in [10] (ATCC 27853, 24 h), 50 µg/mL (≈ 114 µM); in experiment [12] (ATCC 25923, 24 h) it was more than 100 µg/mL. Further, in experiment [11], the MIC entry is “inactive”.
Turning to `COc1ccc(/C=C/C(=O)c2cc(C(=O)/C=C/c3ccc(OC)c(OC)c3)c(OC)cc2OC)cc1OC`, the zone of inhibition at 100 µg/mL in [1] was less than 5 mm; in experiment [2], 5 mm; in [3] it was 5 mm; in experiment [4], less than 5 mm; in [5] it was 10 mm; in experiment [6], 5 mm. Further, the MIC result in experiment [7] and in experiment [10] was “inactive” each time. The MIC in experiment [8] (ATCC 16404, 48 h) was more than 100 µg/mL; in [9] (ATCC 10231, 48 h) it was more than 100 µg/mL; in [11] (ATCC 25922, 24 h) it was 50 µg/mL (≈ 96.4 µM); in experiment [12] (ATCC 25923, 24 h) it was more than 100 µg/mL.
Turning to `Cc1ccccc1/C=C/C(=O)c1cc(C(=O)/C=C/c2ccccc2C)c(O)cc1O`, the zone of inhibition at 100 µg/mL in [1] was less than 5 mm; in experiment [2] it was less than 5 mm; in [3], 5 mm; in experiment [4] it was 5 mm; in experiment [5], less than 5 mm; in [6] it was 5 mm. Besides, the MIC result in [7], in experiment [8] and in experiment [11] was “inactive” in each case. Moreover, the MIC in experiment [9] (ATCC 10231, 48 h) is more than 100 µg/mL; in experiment [10] (ATCC 27853, 24 h), more than 100 µg/mL; in experiment [12] (ATCC 25923, 24 h) it was more than 100 µg/mL.
Turning to `COc1ccccc1C(=O)Oc1cc(OC(=O)c2ccccc2OC)c(C(C)=O)cc1C(C)=O`, the zone of inhibition at 100 µg/mL in experiment [1] was less than 5 mm; in experiment [2], 5 mm; in [3], less than 5 mm; in experiment [4], 5 mm; in [5], less than 5 mm; in experiment [6], less than 5 mm. For the same molecule, the MIC entry in experiment [7], in experiment [9], in [11] and in [12] was “inactive” each time. Moreover, the MIC in experiment [8] (ATCC 16404, 48 h) is more than 100 µg/mL; in [10] (ATCC 27853, 24 h), more than 100 µg/mL.
For `COc1cc(/C=C/C(=O)c2cc(C(=O)/C=C/c3cc(OC)c(OC)c(OC)c3)c(O)cc2O)cc(OC)c1OC`, the zone of inhibition at 100 µg/mL is 10 mm in experiment [1]; 10 mm in experiment [2]; 15 mm in experiment [3]; 5 mm in experiment [4]; 10 mm in experiment [5]; 10 mm in experiment [6]. The MIC in [7] (MTCC 262, 48 h) is 50 µg/mL (≈ 90.8 µM); in experiment [8] (ATCC 16404, 48 h), 50 µg/mL (≈ 90.8 µM); in [9] (ATCC 10231, 48 h), 25 µg/mL (≈ 45.4 µM); in [10] (ATCC 27853, 24 h) it was more than 100 µg/mL; in experiment [11] (ATCC 25922, 24 h) it was 50 µg/mL (≈ 90.8 µM); in experiment [12] (ATCC 25923, 24 h), 50 µg/mL (≈ 90.8 µM).
`O=C(O)c1cn(C2CC2)c2cc(N3CCNCC3)c(F)cc2c1=O` [CIPROFLOXACIN]: the zone of inhibition at 100 µg/mL in experiment [4], in experiment [5] and in experiment [6] was more than 20 mm in each case.
`COC1=CC(=O)C[C@@H](C)[C@]12Oc1c(Cl)c(OC)cc(OC)c1C2=O` [GRISEOFULVIN]: the zone of inhibition at 100 µg/mL in [1], in experiment [2] and in experiment [3] was more than 20 mm throughout. Besides, the MIC in experiment [7] (MTCC 262, 48 h) was determined as 6.25 µg/mL (≈ 17.7 µM); in experiment [8] (ATCC 16404, 48 h) it was 6.25 µg/mL (≈ 17.7 µM); in [9] (ATCC 10231, 48 h), 6.25 µg/mL (≈ 17.7 µM).
Consider `O=c1c(O)c(-c2ccc(O)c(O)c2)oc2cc(O)cc(O)c12` [QUERCETIN], for which the MIC in experiment [9] (ATCC 10231, 48 h) is more than 100 µg/mL; in [11] (ATCC 25922, 24 h), more than 100 µg/mL; in [12] (ATCC 25923, 24 h), more than 100 µg/mL.
